Data reported in patent publication US10406146B2, “Heterocyclic compound” (TAKEDA PHARMACEUTICAL COMPANY LIMITED, priority 2015, dated 2019).

Experiments:
Assay type in all cases: biochemical
[1] = target: T1, HDAC6 enzyme (Homo sapiens, UniProt Q9UBN7); assay: HDAC6 enzyme inhibitory assay (HDAC-Glo I/II Assay kit); conditions: wells without enzyme = 100% inhibition; for inhibition at 1 µM: read-out: HDAC6 inhibitory rate (%) (1 μM)
T1 construct: transducing full length HDAC1 and HDAC6 genes into Sf-9 insect cells; GST; purchased SignalChem; host or cells: Sf-9 insect cells
T1 sequence (Q9UBN7 1-1215): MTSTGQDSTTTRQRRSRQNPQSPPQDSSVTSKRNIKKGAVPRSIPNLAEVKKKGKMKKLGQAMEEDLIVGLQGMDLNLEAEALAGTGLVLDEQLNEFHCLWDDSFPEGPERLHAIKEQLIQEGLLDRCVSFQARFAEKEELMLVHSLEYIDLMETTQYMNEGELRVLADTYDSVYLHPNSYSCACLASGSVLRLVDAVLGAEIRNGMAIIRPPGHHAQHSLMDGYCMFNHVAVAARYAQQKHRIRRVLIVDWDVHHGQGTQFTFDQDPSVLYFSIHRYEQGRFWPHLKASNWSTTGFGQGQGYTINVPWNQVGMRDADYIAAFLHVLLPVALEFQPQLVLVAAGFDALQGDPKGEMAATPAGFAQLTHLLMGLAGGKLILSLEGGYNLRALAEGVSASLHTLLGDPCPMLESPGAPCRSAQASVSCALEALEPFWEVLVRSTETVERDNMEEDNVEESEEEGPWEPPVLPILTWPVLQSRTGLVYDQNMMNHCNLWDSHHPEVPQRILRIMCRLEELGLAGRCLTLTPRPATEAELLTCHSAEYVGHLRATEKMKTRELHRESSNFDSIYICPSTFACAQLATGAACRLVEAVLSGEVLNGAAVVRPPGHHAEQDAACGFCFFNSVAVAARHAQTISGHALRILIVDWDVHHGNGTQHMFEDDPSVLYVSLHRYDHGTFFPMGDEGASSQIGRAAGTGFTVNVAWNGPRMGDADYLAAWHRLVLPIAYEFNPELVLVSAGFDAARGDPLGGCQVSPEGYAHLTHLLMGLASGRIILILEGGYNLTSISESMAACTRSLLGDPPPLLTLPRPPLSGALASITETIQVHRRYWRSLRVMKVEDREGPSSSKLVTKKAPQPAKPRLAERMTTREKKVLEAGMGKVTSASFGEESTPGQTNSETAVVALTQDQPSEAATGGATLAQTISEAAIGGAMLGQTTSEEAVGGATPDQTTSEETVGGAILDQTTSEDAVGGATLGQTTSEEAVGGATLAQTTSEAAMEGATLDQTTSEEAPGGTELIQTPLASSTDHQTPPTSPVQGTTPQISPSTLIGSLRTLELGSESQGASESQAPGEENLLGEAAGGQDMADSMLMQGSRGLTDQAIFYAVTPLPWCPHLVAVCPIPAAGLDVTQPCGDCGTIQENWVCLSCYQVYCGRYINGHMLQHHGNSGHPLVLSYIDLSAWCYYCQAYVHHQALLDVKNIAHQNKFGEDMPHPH
Method: (§1) HDAC1/6 Enzyme Inhibitory Assay
(§2) HDAC1 enzyme and HDAC6 enzyme each prepared by transducing full length HDAC1 and HDAC6 genes into Sf-9 insect cells and purifying by GST affinity column were purchased from SignalChem. Using these enzymes, HDAC1 and/or HDAC6 enzyme inhibitory activities of the compound of the present invention were evaluated. Enzymes were used after preserved at −70° C. HDAC1 or HDAC6 enzyme inhibitory activity of the compound of the present invention was measured using HDAC-Glo™ I/II Assay kit (Promega) according to the following experimental method. The test compound diluted with assay buffer (24 mM Tris-HCl (pH 7.5), 1 mM MgCl2, 0.35 mM KCl, 135 mM NaCl, 0.6 mM Glutathione, 0.01% Tween-20) was added to a 384-well plate by each 2 μL. Then, HDAC1 or HDAC6 enzyme solution diluted with assay buffer was added thereto by each 4 μL, and the plate was incubated at room temperature for 60 min. After incubated, HDAC substrate-Developer solution prepared according to Promega protocol attached to the assay kit was added to the 384-well plate by each 2 μL, and the enzyme reaction was started. After reacting at room temperature for 20 min, luminescence level was measured using plate reader Envision (PerkinElmer). The inhibitory activity of each compound was calculated as a relative activity value when luminescence level in wells without enzyme is considered as 100% inhibition.

[2] = target: T2, HDAC1 enzyme (Homo sapiens, UniProt Q13547); assay: HDAC1 enzyme inhibitory assay (HDAC-Glo I/II Assay kit); conditions: wells without enzyme = 100% inhibition; for inhibition at 1 µM: read-out: HDAC1 inhibitory rate (%) (1 μM)
T2 construct: transducing full length HDAC1 and HDAC6 genes into Sf-9 insect cells; GST; purchased SignalChem; host or cells: Sf-9 insect cells
T2 sequence (Q13547 whole entry): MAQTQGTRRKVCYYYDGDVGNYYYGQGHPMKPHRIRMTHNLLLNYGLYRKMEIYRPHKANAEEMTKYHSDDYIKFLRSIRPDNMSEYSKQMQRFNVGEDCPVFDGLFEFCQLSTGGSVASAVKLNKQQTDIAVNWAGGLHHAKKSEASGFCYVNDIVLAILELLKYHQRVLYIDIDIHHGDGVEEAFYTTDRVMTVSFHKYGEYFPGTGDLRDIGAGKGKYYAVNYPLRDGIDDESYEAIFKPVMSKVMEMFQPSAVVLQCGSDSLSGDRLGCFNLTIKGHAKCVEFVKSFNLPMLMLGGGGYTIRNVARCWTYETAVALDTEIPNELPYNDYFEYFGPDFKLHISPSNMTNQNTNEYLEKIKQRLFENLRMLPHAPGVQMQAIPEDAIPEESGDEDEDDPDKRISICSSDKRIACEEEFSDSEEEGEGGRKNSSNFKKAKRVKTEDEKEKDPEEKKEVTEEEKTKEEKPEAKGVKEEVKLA
Method: as §1, §2

[3] = target: T3, HDAC9 enzyme (Homo sapiens, UniProt Q9UKV0); assay: HDAC9 enzyme inhibitory assay (HDAC-Glo class IIa); conditions: wells without enzyme = 100% inhibition; for inhibition at 1 µM: read-out: HDAC9 inhibitory rate (%) (1 μM)
T3 construct: transducing full length HDAC9 gene into Sf-9 insect cells; made in house; host or cells: Sf-9 insect cells
T3 sequence (Q9UKV0 whole entry, species assumed): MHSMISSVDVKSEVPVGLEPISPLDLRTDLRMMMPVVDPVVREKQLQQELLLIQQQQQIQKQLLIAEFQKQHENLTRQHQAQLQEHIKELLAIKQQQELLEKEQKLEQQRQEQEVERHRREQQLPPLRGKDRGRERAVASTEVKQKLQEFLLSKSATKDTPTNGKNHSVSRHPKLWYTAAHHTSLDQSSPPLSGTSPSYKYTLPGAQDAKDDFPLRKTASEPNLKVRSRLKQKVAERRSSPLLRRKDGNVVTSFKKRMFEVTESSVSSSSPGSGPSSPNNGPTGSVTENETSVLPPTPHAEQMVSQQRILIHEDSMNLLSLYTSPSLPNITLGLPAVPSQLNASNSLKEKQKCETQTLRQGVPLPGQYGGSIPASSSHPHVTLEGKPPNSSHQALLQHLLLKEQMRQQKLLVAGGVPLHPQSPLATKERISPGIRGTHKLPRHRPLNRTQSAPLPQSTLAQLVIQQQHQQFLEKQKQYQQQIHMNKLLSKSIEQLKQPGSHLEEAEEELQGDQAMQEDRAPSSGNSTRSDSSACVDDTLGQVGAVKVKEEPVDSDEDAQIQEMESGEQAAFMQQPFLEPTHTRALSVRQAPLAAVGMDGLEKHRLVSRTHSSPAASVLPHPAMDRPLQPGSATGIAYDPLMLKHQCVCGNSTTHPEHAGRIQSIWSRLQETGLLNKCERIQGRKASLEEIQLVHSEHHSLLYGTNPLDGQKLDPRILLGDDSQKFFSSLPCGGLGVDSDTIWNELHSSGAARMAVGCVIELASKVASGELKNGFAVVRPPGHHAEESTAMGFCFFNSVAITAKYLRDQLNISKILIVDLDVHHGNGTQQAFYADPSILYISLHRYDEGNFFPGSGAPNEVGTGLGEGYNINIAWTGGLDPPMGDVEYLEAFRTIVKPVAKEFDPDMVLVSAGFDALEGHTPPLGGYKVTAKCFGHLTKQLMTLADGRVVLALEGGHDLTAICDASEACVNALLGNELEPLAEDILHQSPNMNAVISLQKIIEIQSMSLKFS
Method: HDAC9 Enzyme Inhibitory Assay
Enzyme was prepared by transducing full length HDAC9 gene into Sf-9 insect cells and purifying by Ni-NTA affinity column, and HDAC9 enzyme inhibitory activity was evaluated. Enzymes were used after preserved at −70° C. HDAC9 enzyme inhibitory activity of the test compound was measured using HDAC-Glo class IIa (Promega) according to the following experimental method. The test compound diluted with assay buffer (24 mM Tris-HCl (pH 7.5), 1 mM MgCl2, 0.35 mM KCl, 135 mM NaCl, 0.6 mM Glutathione, 0.01% Tween-20) was added to a 384-well plate by each 2 μL. Then, HDAC9 enzyme solution diluted with assay buffer was added thereto by each 2 μL, and the plate was incubated at room temperature for 60 min. After incubated, HDAC substrate-Developer solution prepared according to Promega protocol was added to the 384-well plate by each 4 μL, and the enzyme reaction was started. After reacting at room temperature for 20 min, luminescence level was measured using plate reader Envision (PerkinElmer). The inhibitory activity of each compound was calculated as a relative activity value when luminescence level in wells without enzyme is considered as 100% inhibition.

inhibition at 1 µM [1] [%]	inhibition at 1 µM [2] [%]	inhibition at 1 µM [3] [%]	HDAC6 inhibitory rate (%) (1 μM) [1]	HDAC1 inhibitory rate (%) (1 μM) [2]	HDAC9 inhibitory rate (%) (1 μM) [3]	SMILES
6	62	98				O=C(NCC1COCCN1C(=O)Nc1ccc(-c2noc(C(F)(F)F)n2)cc1)c1ccccc1 (stereo not drawn) [Example 1, 3-((benzoylamino)methyl)-N-(4-(5-(trifluoromethyl)-1,2,4-oxadiazol-3-yl)phenyl)morpholine-4-carboxamide]
10	80	90				O=C(NCC1CCCCN1C(=O)Nc1ccc(-c2noc(C(F)(F)F)n2)cc1)c1ccccc1 (stereo not drawn) [Example 2, 2-((benzoylamino)methyl)-N-(4-(5-(trifluoromethyl)-1,2,4-oxadiazol-3-yl)phenyl)piperidine-1-carboxamide]
			5	51	87	CC(C)(C)OC(=O)NCC1CCCCN1C(=O)Nc1ccc(-c2noc(C(F)(F)F)n2)cc1 (stereo not drawn) [Example 3, tert-butyl ((1-((4-(5-(trifluoromethyl)-1,2,4-oxadiazol-3-yl)phenyl)carbamoyl)piperidin-2-yl)methyl) carbamate]
5	44	89				O=C(NCC1CCCCN1C(=O)Nc1ccc(-c2noc(C(F)(F)F)n2)cc1)c1ccccc1F (stereo not drawn) [Example 4, 2-(((2-fluorobenzoyl)amino)methyl)-N-(4-(5-(trifluoromethyl)-1,2,4-oxadiazol-3-yl)phenyl)piperidine-1-carboxamide]
4	35	95				O=C(NCC1CCCCN1C(=O)Nc1ccc(-c2noc(C(F)(F)F)n2)cc1)c1cccc(F)c1 (stereo not drawn) [Example 5, 2-(((3-fluorobenzoyl)amino)methyl)-N-(4-(5-(trifluoromethyl)-1,2,4-oxadiazol-3-yl)phenyl)piperidine-1-carboxamide]
5	34	94				O=C(NCC1CCCCN1C(=O)Nc1ccc(-c2noc(C(F)(F)F)n2)cc1)c1ccc(F)cc1 (stereo not drawn) [Example 6, 2-(((4-fluorobenzoyl)amino)methyl)-N-(4-(5-(trifluoromethyl)-1,2,4-oxadiazol-3-yl)phenyl)piperidine-1-carboxamide]
3	-3	52				O=C(NCC1CCCCN1C(=O)Nc1ccc(-c2noc(C(F)(F)F)n2)cc1)c1ccccc1Cl (stereo not drawn) [Example 7, 2-(((2-chlorobenzoyl)amino)methyl)-N-(4-(5-(trifluoromethyl)-1,2,4-oxadiazol-3-yl)phenyl)piperidine-1-carboxamide]
2	-7	68				O=C(NCC1CCCCN1C(=O)Nc1ccc(-c2noc(C(F)(F)F)n2)cc1)c1cccc(Cl)c1 (stereo not drawn) [Example 8, 2-(((3-chlorobenzoyl)amino)methyl)-N-(4-(5-(trifluoromethyl)-1,2,4-oxadiazol-3-yl)phenyl)piperidine-1-carboxamide]
3	4	94				O=C(NCC1CCCCN1C(=O)Nc1ccc(-c2noc(C(F)(F)F)n2)cc1)c1ccc(Cl)cc1 (stereo not drawn) [Example 9, 2-(((4-chlorobenzoyl)amino)methyl)-N-(4-(5-(trifluoromethyl)-1,2,4-oxadiazol-3-yl)phenyl)piperidine-1-carboxamide]
5	4	84				Cc1ccccc1C(=O)NCC1CCCCN1C(=O)Nc1ccc(-c2noc(C(F)(F)F)n2)cc1 (stereo not drawn) [Example 10, 2-(((2-methylbenzoyl)amino)methyl)-N-(4-(5-(trifluoromethyl)-1,2,4-oxadiazol-3-yl)phenyl)piperidine-1-carboxamide]
5	20	90				Cc1cccc(C(=O)NCC2CCCCN2C(=O)Nc2ccc(-c3noc(C(F)(F)F)n3)cc2)c1 (stereo not drawn) [Example 11, 2-(((3-methylbenzoyl)amino)methyl)-N-(4-(5-(trifluoromethyl)-1,2,4-oxadiazol-3-yl)phenyl)piperidine-1-carboxamide]
5	-16	67				Cc1ccc(C(=O)NCC2CCCCN2C(=O)Nc2ccc(-c3noc(C(F)(F)F)n3)cc2)cc1 (stereo not drawn) [Example 12, 2-(((4-methylbenzoyl)amino)methyl)-N-(4-(5-(trifluoromethyl)-1,2,4-oxadiazol-3-yl)phenyl)piperidine-1-carboxamide]
9	19	82				O=C(NCC1CCCCN1C(=O)Nc1ccc(-c2noc(C(F)(F)F)n2)cc1)c1ccccc1-c1ccccc1 (stereo not drawn) [Example 13, 2-(((biphenyl-2-ylcarbonyl)amino)methyl)-N-(4-(5-(trifluoromethyl)-1,2,4-oxadiazol-3-yl)phenyl)piperidine-1-carboxamide]
5	-8	51				O=C(NCC1CCCCN1C(=O)Nc1ccc(-c2noc(C(F)(F)F)n2)cc1)c1cccc(-c2ccccc2)c1 (stereo not drawn) [Example 14, 2-(((biphenyl-3-ylcarbonyl)amino)methyl)-N-(4-(5-(trifluoromethyl)-1,2,4-oxadiazol-3-yl)phenyl)piperidine-1-carboxamide]
-1	-12	40				O=C(NCC1CCCCN1C(=O)Nc1ccc(-c2noc(C(F)(F)F)n2)cc1)c1ccc(-c2ccccc2)cc1 (stereo not drawn) [Example 15, 2-(((biphenyl-4-ylcarbonyl)amino)methyl)-N-(4-(5-(trifluoromethyl)-1,2,4-oxadiazol-3-yl)phenyl)piperidine-1-carboxamide]
1	-2	57				O=C(NCC1CCCCN1C(=O)Nc1ccc(-c2noc(C(F)(F)F)n2)cc1)c1ccccc1C(F)(F)F (stereo not drawn) [Example 16, 2-(((2-(trifluoromethyl)benzoyl)amino)methyl)-N-(4-(5-(trifluoromethyl)-1,2,4-oxadiazol-3-yl)phenyl)piperidine-1-carboxamide]
